Source: patent US11130752B2, “Aminopyrimidine compound” (Cardurion Pharmaceuticals, LLC, priority 2018, dated 2021)

Molecular target: T1, human CaMKIIδ (Homo sapiens, UniProt Q13557)
T1 construct: Full-length, glutathione-S-transferase(GST)-tagged, human CaMKIIδ was purchased from Carna Biosciences; purchased Carna Biosciences (CaMKIIδ); Wako Pure Chemical Industries (calmodulin) 02-111
Assay: In vitro CaMKII inhibitory activity (binding assay, TR-FRET)
Conditions: Table 1, GST-tagged human CaMKIIδ, activity ranks
Procedure: Evaluation of In Vitro CaMKII Inhibitory Activity (Binding Assay)
In vitro CaMKIIδ inhibitory activity was evaluated by a binding assay.
Full-length, glutathione-S-transferase(GST)-tagged, human CaMKIIδ was purchased from Carna Biosciences (product #02-111, Kobe, Japan). Full-length bovine calmodulin was purchased from Wako Pure Chemical Industries (Osaka, Japan). Terbium-labeled anti-GST antibody (Tb-anti-GST Ab) was purchased from Life Technologies (Carlsbad, Calif., USA). Boron-dipyrromethene (BODIPY)-labeled probe ligand was synthesized as described below.
Time-Resolved Fluorescence Resonance Energy Transfer (TR-FRET) Assay
All assays were conducted using 384-well, white, flat-bottomed plates (product #784075, Greiner Bio-One, Frickenhausen, Germany) in kinase assay buffer, which consists of 50 mM HEPES pH 7.6, 10 mM MgCl2, 1 mM EGTA, 0.01% Brig-35, 0.1 mM DTT). The fluorescent probe ligand was added at a final concentration of 300 nM to solutions containing 0.21 nM Tb-anti-GST Ab, 1 mM CaCl2, 10 μg/mL calmodulin, and 0.5 nM GST-tagged CaMKIIδ. After shaded incubation of the protein-probe mixture on ice for 30 min, the premix was dispensed in the assay plate including test inhibitors with 4 fold dilution series of eight concentrations. After 1 hr incubation at room temperature, TR-FRET signals were measured in duplicate using an EnVision microplate reader (Perkin Elmer, Waltham, Mass., USA). The solution in each well was excited with a laser (λ=340 nm) reflected by a dichroic mirror (D400/D505 (Perkin Elmer) through an excitation filter (UV (TRF) 340, (Perkin Elmer)), and fluorescence from Tb and BODIPY were detected through two emission filters (CFP 495 (Perkin Elmer) for Tb, Emission 520 (Perkin Elmer) for BODIPY).
The percentage of inhibition of test compounds was calculated according to equation (1) Inhibition(%)=100×(μH−T)/(μH−μL) (1)
Where T is the value of the wells containing test compounds and μH and μL are the mean values of the 0% and 100% inhibition control wells, respectively. The values of the 0 and 100% controls were the signals obtained in the absence and presence of 3 μM its parent compound, respectively. The half maximal inhibitory concentration (IC50) of test compounds was calculated by fitting the data with the logistic equation using XLfit (IDBS, Guildford, UK). The IC50 was classified according to the following activity ranks.

**Q.** How did the IC50 turn out when `COCCCOc1nn([C@H]2CC[C@H](N3CCOCC3)CC2)cc1Nc1ncc(-c2ccc(Cl)c(O[C@@H](C)Cn3cnnn3)c2)cn1` [Example 27, 5-(3-(((S)-1-(1H-tetrazol-1-yl)propan-2-yl)oxy)-4-chlorophenyl)-N-(3-(3-methoxypropoxy)-1-((1r,4r)-4-morpholinocyclohexyl)-1H-pyrazol-4-yl)pyrimidin-2-amine] was run?
**A.** < 10 nM

**Q.** With `C[C@@H](Cn1cnnn1)Oc1cc(-c2cnc(Nc3cn([C@H]4CC[C@H](N5CCOCC5)CC4)nc3O)nc2)ccc1C#N` [Example 461, 2-(((S)-1-(1H-tetrazol-1-yl)propan-2-yl)oxy)-4-(2-((3-hydroxy-1-((1r,4r)-4-morpholinocyclohexyl)-1H-pyrazol-4-yl)amino)pyrimidin-5-yl)benzonitrile] as the compound, how does the IC50 read?
**A.** < 10 nM

Same assay, conditions: Table 4, GST-tagged human CaMKIIδ, activity ranks

**Q.** With `C[C@@H]1CN([C@H]2CC[C@H](n3cc(Nc4ncc(-c5ccc(Cl)c(O[C@@H](C)Cn6cnnn6)c5)cn4)c(OCCO)n3)CC2)C[C@H](C)O1` [Example 481, 2-((4-((5-(3-(((S)-1-(1H-tetrazol-1-yl)propan-2-yl)oxy)-4-chlorophenyl)pyrimidin-2-yl)amino)-1-((1r,4r)-4-((2S,6R)-2,6-dimethylmorpholino)cyclohexyl)-1H-pyrazol-3-yl)oxy)ethan-1-ol] as the compound, how does the IC50 read?
**A.** < 10 nM

**Q.** For `C[C@@H]1CN([C@H]2CC[C@H](n3cc(Nc4ncc(-c5ccc(Cl)c(O[C@@H](C)Cn6cnnn6)c5)cn4)c(OC[C@@H](C)O)n3)CC2)C[C@H](C)O1` [Example 482, (R)-1-((4-((5-(3-(((S)-1-(1H-tetrazol-1-yl)propan-2-yl)oxy)-4-chlorophenyl)pyrimidin-2-yl)amino)-1-((1r,4r)-4-((2S,6R)-2,6-dimethylmorpholino)cyclohexyl)-1H-pyrazol-3-yl)oxy)propan-2-ol], which IC50 is on record?
**A.** < 10 nM

**Q.** `C[C@@H]1CN([C@H]2CC[C@H](n3cc(Nc4ncc(-c5ccc(Cl)c(O[C@@H](C)Cn6cnnn6)c5)cn4)c(OCC4COC4)n3)CC2)C[C@H](C)O1` [Example 480, 5-(3-(((S)-1-(1H-tetrazol-1-yl)propan-2-yl)oxy)-4-chlorophenyl)-N-(1-((1r,4r)-4-((2S,6R)-2,6-dimethylmorpholino)cyclohexyl)-3-(oxetan-3-ylmethoxy)-1H-pyrazol-4-yl)pyrimidin-2-amine] was tested. Which IC50 did it give?
**A.** < 10 nM

**Q.** `C[C@@H](Cn1cnnn1)Oc1cc(-c2cnc(Nc3cn([C@H]4CC[C@H](N5CCOCC5)CC4)nc3OCCn3cccn3)nc2)ccc1Cl` [Example 513, N-(3-(2-(1H-pyrazol-1-yl)ethoxy)-1-((1r,4r)-4-morpholinocyclohexyl)-1H-pyrazol-4-yl)-5-(3-(((S)-1-(1H-tetrazol-1-yl)propan-2-yl)oxy)-4-chlorophenyl)pyrimidin-2-amine] was tested. Which IC50 did it give?
**A.** < 10 nM

**Q.** `Cc1ncc(COc2nn([C@H]3CC[C@H](N4C[C@@H](C)O[C@@H](C)C4)CC3)cc2Nc2ncc(-c3ccc(C#N)c(O[C@@H](C)Cn4cnnn4)c3)cn2)s1` [Example 476, 2-(((S)-1-(1H-tetrazol-1-yl)propan-2-yl)oxy)-4-(2-((1-((1r,4r)-4-((2S,6R)-2,6-dimethylmorpholino)cyclohexyl)-3-((2-methylthiazol-5-yl)methoxy)-1H-pyrazol-4-yl)amino)pyrimidin-5-yl)benzonitrile] was tested. Which IC50 did it give?
**A.** < 10 nM

**Q.** Which IC50 does the source give for `[2H]C([2H])([2H])OCCCOc1nn([C@H]2CC[C@H](N3CCOCC3)CC2)cc1Nc1ncc(-c2ccc(Cl)c(O[C@@H](C)Cn3cnnn3)c2)cn1` [Example 512, 5-(3-(((S)-1-(1H-tetrazol-1-yl)propan-2-yl)oxy)-4-chlorophenyl)-N-(3-(3-(methoxy-d3)propoxy)-1-((1r,4r)-4-morpholinocyclohexyl)-1H-pyrazol-4-yl)pyrimidin-2-amine] here?
**A.** < 10 nM

**Q.** With `C[C@@H](Cn1cnnn1)Oc1cc(-c2cnc(Nc3cn([C@H]4CC[C@H](N5CCOCC5)CC4)nc3OCC3COC3)nc2)ccc1Cl` [Example 491, 5-(3-(((S)-1-(1H-tetrazol-1-yl)propan-2-yl)oxy)-4-chlorophenyl)-N-(1-((1r,4r)-4-morpholinocyclohexyl)-3-(oxetan-3-ylmethoxy)-1H-pyrazol-4-yl)pyrimidin-2-amine] as the compound, how does the IC50 read?
**A.** < 10 nM
